Earlier results as cited in US20170266323A1, “NEAR-INFRARED-II FLUORESCENT AGENTS, METHODS OF MAKING NEAR-INFRARED-II FLUORESCENT AGENTS, AND METHODS OF USING WATER-SOLUBLE NIR-II FLUORESCENT AGENTS” (The Board of Trustees of the Leland Stanford Junior …, priority 2013, published 2017).

Experiments:
[1] = in DCM, rhodamine B in ethanol as reference, reported by one study

- solubility in water: water insoluble
- fluorescence quantum efficiency [1]: ~1.7±0.5%
SMILES: ClC1=C(C=Cc2cc(-c3ccccc3)[s+]c(-c3ccccc3)c2)CCCC1=CC=C1C=C(c2ccccc2)SC(c2ccccc2)=C1.F[B-](F)(F)F [IR-1061, 4-[2-[2-Chloro-3-[(2,6-diphenyl-4H-thiopyran-4-ylidene)ethylidene]-1-cyclohexen-1-yl]ethenyl]-2,6-diphenylthiopyrylium tetrafluoroborate]
